Assay results reported in ChEMBL document CHEMBL1149874 (Bioorg Med Chem, 2008).
Activity calls are given as the source filed them. The rule behind the calls is not given here. Residues, ends and D or L forms follow the SMILES beside them.

How the values were obtained:
[1] = molecular target: T1, Mu-type opioid receptor (Homo sapiens, UniProt P35372); experiment: Displacement of [3H]DAMGO from mu opioid receptor in human SH-SY5Y cells; format: cell-based
[2] = molecular target: T1, Mu-type opioid receptor; experiment: Increase in internalization of mu opioid receptor in human SH-SY5Y cells; format: cell-based
[3] = molecular target: T1, Mu-type opioid receptor; experiment: Agonist activity at mu opioid receptor assessed as inhibition of forskolin-induced cAMP production in human SH-SY5Y cells pretreated for 24 hrs with DMEM medium after 15 mins; format: functional, cell-based
[4] = molecular target: T1, Mu-type opioid receptor; experiment: Agonist activity at mu opioid receptor assessed as inhibition of forskolin-induced cAMP production in human SH-SY5Y cells pretreated for 24 hrs with excess ligand after 15 mins; format: functional, cell-based
[5] = molecular target: T1, Mu-type opioid receptor; experiment: Decrease in internalization of mu opioid receptor in human SH-SY5Y cells; format: cell-based

T1 sequence (P35372 whole entry): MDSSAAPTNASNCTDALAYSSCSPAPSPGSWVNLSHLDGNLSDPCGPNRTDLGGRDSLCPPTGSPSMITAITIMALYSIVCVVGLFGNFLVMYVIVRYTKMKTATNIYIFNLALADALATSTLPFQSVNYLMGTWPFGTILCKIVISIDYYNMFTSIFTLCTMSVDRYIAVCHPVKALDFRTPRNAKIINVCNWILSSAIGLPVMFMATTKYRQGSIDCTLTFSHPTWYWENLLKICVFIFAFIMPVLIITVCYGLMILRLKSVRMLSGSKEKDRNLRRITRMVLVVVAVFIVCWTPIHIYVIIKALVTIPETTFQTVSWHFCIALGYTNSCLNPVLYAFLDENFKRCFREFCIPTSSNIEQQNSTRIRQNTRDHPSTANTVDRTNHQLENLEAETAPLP

Compound | Ki [1] [nM] | Activity [2] [%] | IC50 [3] [nM] | IC50 [4] [nM] | Activity [5]
H-YGWFL-NH2 | 113 | 40 | 126 | 132 | –
C[C@H](NC(=O)[C@@H]1CCCN1C(=O)[C@@H](N)Cc1ccc(O)cc1)C(=O)N[C@@H](Cc1ccccc1)C(N)=O (H-YPAF-NH2) | 226 | – | – | – | Active
C[C@H](NC(=O)[C@@H](N)Cc1ccc(O)cc1)C(=O)N[C@@H](Cc1c[nH]c2ccccc12)C(=O)N[C@@H](Cc1ccccc1)C(N)=O (H-YAWF-NH2) | 3190 | – | – | – | –
C[C@H](NC(=O)[C@H](C)NC(=O)[C@@H]1CCCN1C(=O)[C@@H](N)Cc1ccc(O)cc1)C(N)=O (H-YPAA-NH2) | 705 | – | – | – | Active
H-YGGWL-NH2 | 12.1 | 22 | 27.5 | 49.2 | –
C[C@H](NC(=O)[C@H](Cc1c[nH]c2ccccc12)NC(=O)[C@@H]1CCCN1C(=O)[C@@H](N)Cc1ccc(O)cc1)C(N)=O (H-YPWA-NH2) | 72.7 | – | – | – | Active
